Reference: patent US20260068882A1, “ARTHROPOD CONTROLLING COMPOSITION” (Firmenich SA, priority 2019, published 2026)
Like-named read-outs stand apart in the source and are kept apart here.

Tests used:
[1] = test system: Ixodes ricinus; experiment: In vitro Warm Plate Assay for ticks; format: in vivo; conditions: for pest or weed control at 0.2 %: 0.2% (Table 10); for concentration at which the level of 85% of ticks affected is reached: Tables 10 and 12
Procedure: Repellent efficacy of the different compounds was assessed against the sheep tick, Ixodes ricinus. I. ricinus is one of the recommended model organisms mentioned by the Guidance on the European Biological Products Regulation [Vol II, Efficacy-Assessment & Evaluation (Parts B+C), v. 3.0, April 2018]. Observations of repellent efficacy were made on last stage nymphs.
The repellent efficacy was assessed using the protocol of the in-vitro Warm Plate Assay as defined in Kröber T, Bourquin M, Guerin P M. A standardized in vivo and in vitro test method for evaluating tick repellents. Pesticide Biochemistry and Physiology. 2013; 107 (2): 160-168.].
The mean±SD number of ticks Ixodes ricinus walking down (affected), falling (affected) or walking-up (non affected) from the warm plate treated with ethanol, N,N-diethyl-3-methylbenzamide, (2,5-dimethyl-2,3-dihydro-1H-inden-2yl)methanol (Ingredient 2) or (2,4,6-trimethyl-2,3-dihydro-1H-inden-2-yl)methanol (Ingredient 1) diluted in ethanol at 0.4 mg/ml and 10 mg/mL was assessed on n groups of 12 ticks (n=2-5).
In this in-vitro assay, the percentage of ticks Ixodes ricinus affected by the stimulus loaded on the warm plate was measured in order to assess the repellency effect. Twelve ticks were assessed per concentrations that goes from 0.0016% up to 1% in ethanol.
Using the same in-vitro setup, the effect on ticks behavior (n≥12) of different stimuli diluted in ethanol at 20% (w/w) was assessed overtime.

[2] = test system: Aedes aegypti; experiment: In vitro Warm Body assay, mosquitoes landing on treated warm body; format: in vivo; conditions: for repellent effect with increasing amount of stimuli (in words): 0.0016%, 0.04% and 1% in ethanol (FIG. 10)
Procedure: (§1) The arthropod controlling effect according to the present invention is determined on mosquitoes using an adapted Warm Body assay as defined in Kröber T, Kessler S, Frei J, Bourquin M, Guerin P M. An in vitro assay for testing mosquito controlling compounds employing a warm body and carbon dioxide as a behavioral activator. J Am Mosq Control Assoc. 2010; 26:381-386.
(§2) The controlling effect according to the present invention is determined by testing the Warm Body assay against the yellow fever mosquito, Aedes aegypti Rockefeller strain. […] Observations of controlling efficacy were made on host-seeking females of uniform age, 5 to 10 days old selected as mentioned in the publication mentioned hereinabove. Tested hungry females had access to 10% sugar solution but were not blood-fed.
(§3) The published protocol has been adapted in not manually counting the landing mosquitoes but automatically using an automatic counting software, the switch from Anopheles gambiae to A. aegypti led to a decrease of mosquitoes' number placed in the tested cage due to the size difference (i.e. 30 mosquitoes instead of 50) and to an increase of lighting as A. aegypti is a diurnal mosquitoes (i.e. 150 lux instead of 4 lux).
as §2, with “A.” for “Aedes”
as §1, with “The” for “The arthropod”, “was assessed” for “is determined on mosquitoes”
as §3, with “Aedes” for “A.”
In this in-vitro assay the number of A. aegypti landing on a warm body treated with the tested stimuli was measured in order to assess the repellency effect. Three replicates were carried on the three different doses: 0.0016%, 0.04% and 1% in ethanol, using 25 A. aegypti 10-12 days old females per cage.
In this in-vitro assay, the number of Aedes aegypti landing on a warm body treated with the tested stimuli was measured in order to assess the repellency effect. Three replicates were carried on the three different doses: 0.0016%, 0.04% and 1% in ethanol.
In this in-vitro assay, the number of Aedes aegypti landing on a warm body treated with the tested stimuli was measured in order to assess the repellency effect. One replicate was carried at different doses ranging from 0.0016% up to 1% in ethanol.

[3] = Ixodes ricinus, 0.04% (Table 10), read-out: percentage of ticks affected on the Warm Plate
[4] = Ixodes ricinus, read-out: percentage of ticks affected on the Warm Plate
[5] = Ixodes ricinus, 1% (Table 10), read-out: percentage of ticks affected on the Warm Plate

Compound | pest or weed control at 0.04 % [1, 3] [%] | pest or weed control at 0.2 % [1, 4] [%] | pest or weed control at 1 % [1, 5] [%] | number of mosquitoes landed on the Warm Body ([2]; 0.0016% in ethanol (Table 6)) | number of mosquitoes landed on the Warm Body ([2]; 0.04% in ethanol (Table 6)) | number of mosquitoes landed on the Warm Body ([2]; 1% in ethanol (Table 6)) | further results
CC(C)c1ccc2c(c1)CC(C)(CO)C2 (racemic) [5-isopropyl-2-methyl-2-indanmethanol] | 71 | 87 | 92 |  |  |  | pest or weed control at 0.00032 % ([1]; Ixodes ricinus, 0.00032% (Table 10), read-out: percentage of ticks affected on the Warm Plate): 0%; pest or weed control at 0.0016 % ([1]; Ixodes ricinus, 0.0016% (Table 10), read-out: percentage of ticks affected on the Warm Plate): 21%; pest or weed control at 0.008 % ([1]; Ixodes ricinus, 0.008% (Table 10), read-out: percentage of ticks affected on the Warm Plate): 0%; concentration at which the level of 85% of ticks affected is reached [1]: 0.2%; pest or weed control at 0.0016 % ([2]; Aedes aegypti, read-out: decrease of landings): 4 to 29%
Cc1ccc2c(c1)[C@H]1OCOC[C@H]1C2 (racemic) [(4aRS,9bSR)-8-methyl-4,4a,5,9b-tetrahydroindeno[1,2-d][1,3]dioxin] | 8 | 33 | 85 | 103 | 8 | 8 | 
CC(=O)C1(C)Cc2ccc(C)c(C)c2C1 (racemic) [(+−)-1-(2,4,5-trimethyl-2,3-dihydro-1H-inden-2-yl)ethanone] | 0 | 38 | 92 | 31 | 5 | 18 | 
CC(=O)C1(C)Cc2ccc(C)cc2C1 (racemic) [(+−)-1-(2,5-dimethyl-2,3-dihydro-1H-inden-2-yl)ethanone] | 0 | 42 | 100 | 119 | 15 | 6 | 
CC1(CO)Cc2ccc(C(C)(C)C)cc2C1 (racemic) [(+−)-5-tert-butyl-2-methyl-2-indanmethanol] |  |  |  |  |  |  | pest or weed control at 0.0016 % ([1]; Ixodes ricinus, 0.0016% (Table 11), read-out: percentage of ticks affected on the Warm Plate): 0%; pest or weed control at 0.04 % ([1]; Ixodes ricinus, 0.04% (Table 11), read-out: percentage of ticks affected on the Warm Plate): 8%; pest or weed control at 1 % ([1]; Ixodes ricinus, 1% (Table 11), read-out: percentage of ticks affected on the Warm Plate): 92%; repellent effect with increasing amount of stimuli (in words) [2]: low decrease of landing
Cc1ccc2c(c1)CCC(C)(CO)C2 (racemic) [(+−)-(2,6-dimethyl-1,2,3,4-tetrahydro-2-naphthalenyl)methanol] | 8 | 71 | 100 | 57 | 65 | 3 | 
Cc1ccc2c(c1)CC(CO)C2 (racemic) [(+−)-(5-methyl-2,3-dihydro-1H-inden-2-yl)methanol] | 0 | 100 | 100 | 65 | 7 | 5 | concentration at which the level of 85% of ticks affected is reached [1]: 0.2%
CC1OC(C)C2Cc3ccccc3C2O1 (stereo not drawn) [(+)-2,4-dimethyl-4,4a,5,9b-tetrahydroindeno[1,2-d][1,3]dioxine + (−)-2,4-dimethyl-4,4a,5,9b-tetrahydroindeno[1,2-d][1,3]dioxine] |  |  |  | 58 | 37 | 3 | 
(1RS,2RS)-2-((2-methoxypropan-2-yloxy)methyl)-2,6-dimethyl-2,3-dihydro-1H-inden-1-ol+(1RS,2SR)-2-((2-methoxypropan-2-yloxy)methyl)-2,6-dimethyl-2,3-dihydro-1H-inden-1-ol |  |  |  |  |  |  | repellent effect with increasing amount of stimuli (in words) [2]: significant lower repellent effect than DEET or IR3535
(1RS,2RS)-2-(hydroxymethyl)-2,6-dimethyl-2,3-dihydro-1H-inden-1-ol+(1RS,2SR)-2-(hydroxymethyl)-2,6-dimethyl-2,3-dihydro-1H-inden-1-ol |  |  |  |  |  |  | repellent effect with increasing amount of stimuli (in words) [2]: significant lower repellent effect than DEET or IR3535
(2RS,4aRS,9bRS)-2,4a,7-trimethyl-4,4a,5,9b-tetrahydroindeno[1,2-d][1,3]dioxine + (2RS,4aSR,9bSR)-2,4a,7-trimethyl-4,4a,5,9b-tetrahydroindeno[1,2-d][1,3]dioxine |  |  |  | 30 | 0 | 0 | number of mosquitoes landed on the Warm Body ([2]; 0.04% in ethanol (Table 6), listed as blend of (2RS,4aRS,9bRS)-2,4a,7-trimethyl-4,4a,5,9b-tetrahydroindeno[1,2-d][1,3]): no mosquito landed at all; number of mosquitoes landed on the Warm Body ([2]; 1% in ethanol (Table 6), listed as blend of (2RS,4aRS,9bRS)-2,4a,7-trimethyl-4,4a,5,9b-tetrahydroindeno[1,2-d][1,3]): zero
(2RS,4aRS,9bSR)-2-ethyl-8-methyl-4,4a,5,9b-tetrahydroindeno[1,2-d][1,3]dioxin + (2RS,4aSR,9bRS)-2-ethyl-8-methyl-4,4a,5,9b-tetrahydroindeno[1,2-d][1,3]dioxin |  |  |  | 45 | 24 | 10 | 
(2RS,4aRS,9bSR)-2-methyl-4,4a,5,9b-tetrahydroindeno[1,2-d][1,3]dioxin + (2RS,4aSR,9bRS)-2-methyl-4,4a,5,9b-tetrahydroindeno[1,2-d][1,3]dioxin |  |  |  | 28 | 2 | 2 | 
(2RS,4aSR,9bRS)-2,8-dimethyl-4,4a,5,9b-tetrahydroindeno[1,2-d][1,3]dioxine + 2RS,4aRS,9bSR)-2,8-dimethyl-4,4a,5,9b-tetrahydroindeno[1,2-d][1,3]dioxine |  |  |  | 38 | 14 | 4 | 
(2RS,4aSR,9bRS)-2-ethyl-4,4a,5,9b-tetrahydroindeno[1,2-d][1,3]dioxine + (2RS,4aRS,9bSR)-2-ethyl-4,4a,5,9b-tetrahydroindeno[1,2-d][1,3]dioxine |  |  |  | 43 | 6 | 5 | 
